We go through 7 compounds from ChEMBL document CHEMBL3822442, “Synthesis and Pharmacological Characterization of Novel Glucagon-like Peptide-2 (GLP-2) Analogues with Low Systemic Clearance” (J Med Chem, 2016).

The target in series [1] is T1, Glucagon-like peptide 1 receptor (Homo sapiens, UniProt P43220). Description: Agonist activity at human GLP1R expressed in HEK293 cells at 30 nM after 5 hrs by luciferase reporter gene assay. Format: cell-based. (Reporter assays use an easily measured gene product as a stand-in for the process of interest.)
T1 sequence (P43220 whole entry): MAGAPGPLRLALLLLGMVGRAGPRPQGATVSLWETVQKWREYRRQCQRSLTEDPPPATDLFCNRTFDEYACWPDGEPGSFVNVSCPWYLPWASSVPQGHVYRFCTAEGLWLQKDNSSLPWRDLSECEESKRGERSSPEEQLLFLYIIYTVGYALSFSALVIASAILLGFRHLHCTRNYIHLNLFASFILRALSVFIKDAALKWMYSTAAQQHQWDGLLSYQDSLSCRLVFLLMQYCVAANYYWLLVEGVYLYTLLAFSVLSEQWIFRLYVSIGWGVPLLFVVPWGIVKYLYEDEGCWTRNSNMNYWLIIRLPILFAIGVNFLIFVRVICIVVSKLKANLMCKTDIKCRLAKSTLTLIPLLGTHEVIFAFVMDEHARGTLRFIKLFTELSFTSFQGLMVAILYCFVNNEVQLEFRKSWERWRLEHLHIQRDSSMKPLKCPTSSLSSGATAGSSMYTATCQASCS
Series [2] deals with T1, Glucagon-like peptide 1 receptor. As to the kind of experiment: Agonist activity at human GLP1R expressed in HEK293 cells after 5 hrs by luciferase reporter gene assay. The format is cell-based.
Series [3] addresses T2, Glucagon-like peptide 2 receptor (Homo sapiens, UniProt O95838).
T2 sequence (O95838 whole entry): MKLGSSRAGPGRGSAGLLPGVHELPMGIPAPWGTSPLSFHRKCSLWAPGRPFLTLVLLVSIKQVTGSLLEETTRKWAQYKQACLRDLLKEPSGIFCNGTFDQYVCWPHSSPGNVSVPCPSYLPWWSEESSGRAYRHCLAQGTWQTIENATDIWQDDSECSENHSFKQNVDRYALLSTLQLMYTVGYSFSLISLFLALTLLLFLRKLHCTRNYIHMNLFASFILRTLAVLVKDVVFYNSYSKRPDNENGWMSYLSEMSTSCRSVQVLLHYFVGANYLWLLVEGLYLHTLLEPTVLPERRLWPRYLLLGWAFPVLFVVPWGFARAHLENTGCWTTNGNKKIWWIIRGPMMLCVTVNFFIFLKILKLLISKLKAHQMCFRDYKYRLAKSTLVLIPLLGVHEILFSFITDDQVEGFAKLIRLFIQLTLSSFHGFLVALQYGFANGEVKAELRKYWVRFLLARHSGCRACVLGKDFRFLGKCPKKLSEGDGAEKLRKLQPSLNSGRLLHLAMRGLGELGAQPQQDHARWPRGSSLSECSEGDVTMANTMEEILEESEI
As to the kind of experiment: Agonist activity at human GLP2R expressed in HEK293 cells after 5 hrs by luciferase reporter gene assay. Format: cell-based.

In series [4] the target is Glucagon receptor (Homo sapiens) (UniProt P47871). Description: Agonist activity at human GCGR expressed in HEK293 cells after 5 hrs by luciferase reporter gene assay. The format is cell-based.
Glucagon receptor (Homo sapiens), sequence (P47871 whole entry): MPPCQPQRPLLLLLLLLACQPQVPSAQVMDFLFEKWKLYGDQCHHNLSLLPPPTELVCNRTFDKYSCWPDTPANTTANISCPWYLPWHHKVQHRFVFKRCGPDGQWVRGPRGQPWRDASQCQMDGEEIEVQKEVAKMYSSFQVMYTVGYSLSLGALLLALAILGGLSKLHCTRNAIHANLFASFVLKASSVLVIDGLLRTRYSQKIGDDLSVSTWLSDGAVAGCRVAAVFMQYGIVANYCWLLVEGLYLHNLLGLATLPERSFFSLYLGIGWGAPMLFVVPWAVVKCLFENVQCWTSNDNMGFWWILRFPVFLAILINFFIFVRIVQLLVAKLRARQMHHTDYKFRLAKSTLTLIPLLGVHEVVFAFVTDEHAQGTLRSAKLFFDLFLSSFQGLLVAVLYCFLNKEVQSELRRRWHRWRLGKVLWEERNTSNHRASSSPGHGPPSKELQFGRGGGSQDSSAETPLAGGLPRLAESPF
Series [5] relates to HEK293. As to the kind of experiment: Selectivity ratio of EC50 for human GLP1R expressed in HEK293 cells to EC50 for human GLP2R expressed in HEK293. The format is cell-based.
Series [6] in a line: Systemic clearance in Sprague-Dawley rat at 0.2 mg/kg, iv through cassette dosing measured up to 300 mins by LC/MS/MS analysis. Format: ADME, organism-based. The settings on record: in vivo.

The structures appear in SMILES notation. The source made the active and inactive calls. No cut-off for these calls is given here. Non-standard residues stand in square brackets, D forms with d. Residues, ends and D or L forms follow the SMILES beside them. ξ: configuration not given here. Cha = N[C@@H](CC1CCCCC1)C(=O)O; ξNle = CCCCC(N)C(=O)O

In the case of `CCCCC(NC(=O)[C@H](CCC(=O)O)NC(=O)[C@H](CC(=O)O)NC(=O)[C@H](CO)NC(=O)[C@H](Cc1ccccc1)NC(=O)[C@H](CO)NC(=O)CNC(=O)[C@H](CC(=O)O)NC(=O)CNC(=O)[C@@H](N)Cc1cnc[nH]1)C(=O)N[C@H](C(=O)N[C@H](C(=O)N[C@H](C(=O)N[C@@H](CC(C)C)C(=O)N[C@@H](CC(=O)O)C(=O)N[C@@H](CC(N)=O)C(=O)N[C@@H](CC(C)C)C(=O)N[C@@H](C)C(=O)N[C@@H](C)C(=O)N[C@@H](CCCNC(=N)N)C(=O)N[C@@H](CC(=O)O)C(=O)N[C@@H](Cc1ccccc1)C(=O)N[C@H](C(=O)N[C@@H](CC(N)=O)C(=O)N[C@@H](Cc1c[nH]c2ccccc12)C(=O)N[C@@H](CC(C)C)C(=O)N[C@H](C(=O)N[C@@H](CCC(N)=O)C(=O)N[C@H](C(=O)N[C@@H](CCCCN)C(N)=O)[C@@H](C)O)[C@@H](C)CC)[C@@H](C)CC)[C@@H](C)CC)[C@@H](C)O)[C@@H](C)CC` (some centres not stated) (H-HGDGSFSDE[ξNle]ITILDNLAARDFINWLIQTK-NH2), the Efficacy in series [1] stood at 92%. Also, the EC50 is 110 nM in series [2] and 0.13 nM in series [3]. For the same compound, the result in series [4] was inactive. In addition, the Ratio EC50 in series [5] came out at 840. In series [6], the clearance turned out to be 0.336 L/h/kg.

For `CCCCC(NC(=O)[C@@H](CCC(=O)O)NC(=O)[C@@H](CC(=O)O)NC(=O)[C@@H](CO)NC(=O)[C@@H](Cc1ccccc1)NC(=O)[C@@H](CO)NC(=O)CNC(=O)[C@@H](CC(=O)O)NC(=O)CNC(=O)[C@@H](N)Cc1cnc[nH]1)C(=O)NC(Cc1ccc(Cl)cc1)C(=O)N[C@H](C(=O)N[C@H](C(=O)N[C@@H](CC(C)C)C(=O)N[C@@H](CC(=O)O)C(=O)N[C@@H](CC(N)=O)C(=O)N[C@@H](CC(C)C)C(=O)N[C@@H](C)C(=O)N[C@@H](C)C(=O)N[C@@H](CCCNC(=N)N)C(=O)N[C@@H](CC(=O)O)C(=O)N[C@@H](Cc1ccccc1)C(=O)N[C@H](C(=O)N[C@@H](CC(N)=O)C(=O)N[C@H](Cc1c[nH]c2ccccc12)C(=O)N[C@H](CC(C)C)C(=O)N[C@@H](C(=O)N[C@H](CCC(N)=O)C(=O)N[C@@H](C(=O)N[C@@H](CCCCN)C(N)=O)[C@H](C)O)[C@@H](C)CC)[C@H](C)CC)[C@H](C)CC)[C@@H](C)O` (some centres not stated), the Efficacy in series [1] was determined as 89%. Besides, the values for the concentration giving a half-maximal response (EC50) in series [2] (hek293) and in series [3] (hek293) were 8.8 nM and 0.16 nM, respectively. Moreover, the outcome in series [4] was inactive. The Ratio EC50 in series [5] stood at 55. In series [6], this compound yielded a clearance of 0.033 L/h/kg.

The compound `CCCCC(NC(=O)[C@H](CCC(=O)O)NC(=O)[C@H](CC(=O)O)NC(=O)[C@H](CO)NC(=O)[C@H](Cc1ccccc1)NC(=O)[C@H](CO)NC(=O)CNC(=O)[C@H](CC(=O)O)NC(=O)CNC(=O)[C@@H](N)Cc1cnc[nH]1)C(=O)N[C@H](Cc1cccc(Cl)c1)C(=O)N[C@H](C(=O)N[C@H](C(=O)N[C@@H](CC(C)C)C(=O)N[C@@H](CC(=O)O)C(=O)N[C@@H](CC(N)=O)C(=O)N[C@@H](CC(C)C)C(=O)N[C@@H](C)C(=O)N[C@@H](C)C(=O)N[C@@H](CCCNC(=N)N)C(=O)N[C@@H](CC(=O)O)C(=O)N[C@@H](Cc1ccccc1)C(=O)N[C@H](C(=O)N[C@@H](CC(N)=O)C(=O)N[C@@H](Cc1c[nH]c2ccccc12)C(=O)N[C@@H](CC(C)C)C(=O)N[C@H](C(=O)N[C@@H](CCC(N)=O)C(=O)N[C@H](C(=O)N[C@@H](CCCCN)C(N)=O)[C@@H](C)O)[C@@H](C)CC)[C@@H](C)CC)[C@@H](C)CC)[C@@H](C)O` (some centres not stated) gave an Efficacy in series [1] of 73%. Besides, the EC50 in series [2] turned out to be 45 nM; in series [3] it was 0.11 nM. The result in series [4] was inactive. For the same compound, the Ratio EC50 in series [5] was 400. For the same compound, the clearance in series [6] was 0.0192 L/h/kg.

As for `CCCCC(NC(=O)[C@H](CCC(=O)O)NC(=O)[C@H](CC(=O)O)NC(=O)[C@H](CO)NC(=O)[C@H](Cc1ccccc1)NC(=O)[C@H](CO)NC(=O)CNC(=O)[C@H](CC(=O)O)NC(=O)CNC(=O)[C@@H](N)Cc1cnc[nH]1)C(=O)N[C@H](Cc1ccc(O)cc1)C(=O)N[C@H](C(=O)N[C@H](C(=O)N[C@@H](CC(C)C)C(=O)N[C@@H](CC(=O)O)C(=O)N[C@@H](CC(N)=O)C(=O)N[C@@H](CC(C)C)C(=O)N[C@@H](C)C(=O)N[C@@H](C)C(=O)N[C@@H](CCCNC(=N)N)C(=O)N[C@@H](CC(=O)O)C(=O)N[C@@H](Cc1ccccc1)C(=O)N[C@H](C(=O)N[C@@H](CC(N)=O)C(=O)N[C@@H](Cc1c[nH]c2ccccc12)C(=O)N[C@@H](CC(C)C)C(=O)N[C@H](C(=O)N[C@@H](CCC(N)=O)C(=O)N[C@H](C(=O)N[C@@H](CCCCN)C(N)=O)[C@@H](C)O)[C@@H](C)CC)[C@@H](C)CC)[C@@H](C)CC)[C@@H](C)O` (some centres not stated), in series [1], the Efficacy was 68%. Besides, the EC50 was 32 nM in series [2] and 0.18 nM in series [3]. In addition, the result in series [4] was inactive. In addition, the Ratio EC50 in series [5] is 170. Further, in series [6], the clearance is 0.294 L/h/kg.

As for `CCCCC(NC(=O)[C@H](CCC(=O)O)NC(=O)[C@H](CC(=O)O)NC(=O)[C@H](CO)NC(=O)[C@H](Cc1ccccc1)NC(=O)[C@H](CO)NC(=O)CNC(=O)[C@H](CC(=O)O)NC(=O)CNC(=O)[C@@H](N)Cc1cnc[nH]1)C(=O)N[C@@H](Cc1c[nH]c2ccccc12)C(=O)N[C@H](C(=O)N[C@H](C(=O)N[C@@H](CC(C)C)C(=O)N[C@@H](CC(=O)O)C(=O)N[C@@H](CC(N)=O)C(=O)N[C@@H](CC(C)C)C(=O)N[C@@H](C)C(=O)N[C@@H](C)C(=O)N[C@@H](CCCNC(=N)N)C(=O)N[C@@H](CC(=O)O)C(=O)N[C@@H](Cc1ccccc1)C(=O)N[C@H](C(=O)N[C@@H](CC(N)=O)C(=O)N[C@@H](Cc1c[nH]c2ccccc12)C(=O)N[C@@H](CC(C)C)C(=O)N[C@H](C(=O)N[C@@H](CCC(N)=O)C(=O)N[C@H](C(=O)N[C@@H](CCCCN)C(N)=O)[C@@H](C)O)[C@@H](C)CC)[C@@H](C)CC)[C@@H](C)CC)[C@@H](C)O` (some centres not stated), the Efficacy in series [1] was 35%. Further, the figures for the EC50 in series [2] and in series [3] were 56 nM and 0.21 nM, respectively. Also, in series [4], the outcome was inactive. The Ratio EC50 in series [5] was found to be 260. Moreover, in series [6], the clearance came out at 0.0426 L/h/kg.

As to `CCCCC(NC(=O)[C@H](CCC(=O)O)NC(=O)[C@H](CC(=O)O)NC(=O)[C@H](CO)NC(=O)[C@H](Cc1ccccc1)NC(=O)[C@H](CO)NC(=O)CNC(=O)[C@H](CC(=O)O)NC(=O)CNC(=O)[C@@H](N)Cc1cnc[nH]1)C(=O)N[C@H](Cc1c[nH]c2ccccc12)C(=O)N[C@H](C(=O)N[C@H](C(=O)N[C@@H](CC(C)C)C(=O)N[C@@H](CC(=O)O)C(=O)N[C@@H](CC(N)=O)C(=O)N[C@@H](CC(C)C)C(=O)N[C@@H](C)C(=O)N[C@@H](C)C(=O)N[C@@H](CCCNC(=N)N)C(=O)N[C@@H](CC(=O)O)C(=O)N[C@@H](Cc1ccccc1)C(=O)N[C@H](C(=O)N[C@@H](CC(N)=O)C(=O)N[C@@H](Cc1c[nH]c2ccccc12)C(=O)N[C@@H](CC(C)C)C(=O)N[C@H](C(=O)N[C@@H](CCC(N)=O)C(=O)N[C@H](C(=O)N[C@@H](CCCCN)C(N)=O)[C@@H](C)O)[C@@H](C)CC)[C@@H](C)CC)[C@@H](C)CC)[C@@H](C)O` (some centres not stated), the Efficacy in series [1] was found to be 80%. For the same compound, the EC50 amounted to 40 nM in series [2] and 0.1 nM in series [3]. Also, the result in series [4] was inactive. In series [5], the Ratio EC50 is 400. The compound also yielded a clearance in series [6] of 0.072 L/h/kg.

`CCCCC(NC(=O)[C@H](CCC(=O)O)NC(=O)[C@H](CC(=O)O)NC(=O)[C@H](CO)NC(=O)[C@H](Cc1ccccc1)NC(=O)[C@H](CO)NC(=O)CNC(=O)[C@H](CC(=O)O)NC(=O)CNC(=O)[C@@H](N)Cc1cnc[nH]1)C(=O)N[C@@H](CC1CCCCC1)C(=O)N[C@H](C(=O)N[C@H](C(=O)N[C@@H](CC(C)C)C(=O)N[C@@H](CC(=O)O)C(=O)N[C@@H](CC(N)=O)C(=O)N[C@@H](CC(C)C)C(=O)N[C@@H](C)C(=O)N[C@@H](C)C(=O)N[C@@H](CCCNC(=N)N)C(=O)N[C@@H](CC(=O)O)C(=O)N[C@@H](Cc1ccccc1)C(=O)N[C@H](C(=O)N[C@@H](CC(N)=O)C(=O)N[C@@H](Cc1c[nH]c2ccccc12)C(=O)N[C@@H](CC(C)C)C(=O)N[C@H](C(=O)N[C@@H](CCC(N)=O)C(=O)N[C@H](C(=O)N[C@@H](CCCCN)C(N)=O)[C@@H](C)O)[C@@H](C)CC)[C@@H](C)CC)[C@@H](C)CC)[C@@H](C)O` (some centres not stated) (H-HGDGSFSDE[ξNle][Cha]TILDNLAARDFINWLIQTK-NH2) yielded an Efficacy in series [1] of 83%. Also, the EC50 in series [2] turned out to be 8.9 nM; in series [3], 0.51 nM. In series [4], the result was inactive. The Ratio EC50 in series [5] came out at 17. The compound further registered a clearance in series [6] of 0.0414 L/h/kg.

One may read the EC50 as the concentration that produces a half-maximal response. Lower therefore signals a more potent agent. In general, clearance refers to a measure of how efficiently the substance is removed, as volume per time. The low end stands for inefficient removal, the high end for efficient removal.
